Consider 50 compounds from PubChem BioAssay AID179 (DTP/NCI, 2004).

In this test the test system is CEM cells HIV-1 protection, formazan growth assay. The experiment in a line: NCI AIDS Antiviral Assay. The conditions noted are these: for IC50: measured here: growth of uninfected CEM cells. The procedure, abridged: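 Five concentrations of each compound were applied to infected and uninfected human CEM cells. Protection from HIV-1 was judged from growth measured with a soluble formazan assay.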

Several values for one entry are separate records, joined by “and”; a condition that tells them apart may be missing. Equal values may be shown once. Activity calls are given as the source filed them.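 How the source made its calls: active means compounds giving half or more protection of infected cells from virus-caused growth loss, again on retest; inactive means the rest.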

With `COC1CC(OC2C(C)OC(OC3C(C)OC(OC4C(C)OC(O[C@H]5CC[C@@]6(C)C(=CC[C@]7(O)[C@@H]6C[C@@H](O)[C@@]6(C)[C@]7(O)CC[C@@]6(O)C(C)=O)C5)CC4OC)CC3OC)CC2OC)OC(C)C1O` (some centres not stated), the EC50 was greater than 200 µM and the IC50 was greater than 200 µM. For the compound `COc1cc(/C=C/C(=O)CC(=O)/C=C/c2ccc(O)c(OC)c2)ccc1O` (tested in a mixture with another compound), the EC50 is greater than 200 µM and the IC50 was 3.31 µM. Regarding `O=c1/c(=C/c2ccccc2)sc2nc(-c3ccccc3)nn12`, the EC50 is greater than 200 µM and the IC50 was greater than 200 µM. `CCCCCC=C(c1cc(F)c(OC)c(C(=O)OC)c1)c1cc(F)c(OC)c(C(=O)OC)c1`: the EC50 was greater than 200 µM and the half-inhibitory concentration (IC50) was 115 µM. For the compound `COc1ccc(-c2c(C#N)c(-c3ccc(C)cc3)n(NS(=O)(=O)c3ccc(C)cc3)c(=O)c2C#N)cc1`, the EC50 is greater than 200 µM and the IC50 is 17.4 µM. As for `O=c1cc(-c2ccccc2)oc2ccc(Oc3nnnn3-c3ccccc3)cc12`, the EC50 is greater than 200 µM and the IC50 is greater than 200 µM.

Regarding `COC(=O)CCC(=O)c1ccc2c(c1)CCC2`, the EC50 is greater than 200 µM and the IC50 was greater than 200 µM. Consider `CC(C)(C)OC(=O)NC(CS(=O)(=O)O)C(=O)O` (configuration not stated), for which the EC50 was greater than 200 µM and the IC50 is greater than 200 µM.

Take `CCOc1csc([C@H]2CCC3[C@@H]4CC=C5C[C@@H](OC(=O)CCC(=O)O)CC[C@]5(C)C4CC[C@@]32C)n1` (some centres not stated): the EC50 is greater than 50.1 µM and the IC50 turned out to be 33.9 µM.

As to `CC12OC(=O)C(C(N)=O)=C1C=C(c1ccccc1)CC2c1ccccc1` (configuration not stated), the EC50 was greater than 200 µM and the IC50 stood at 33.1 µM.

With `Nc1nc(Cl)n2nc[n+](C3C=CC(=O)CC3)c2n1` (configuration not stated), the result was inactive.

`COc1cc(CNc2ccc(SC)cc2)cc(OC)c1OC`: the EC50 is greater than 100 µM; the IC50 is 4.68 µM and 4.79 µM. On to `NP(=O)(Nc1ccccc1)Nc1ccccc1`, for which the EC50 was greater than 200 µM and the IC50 is greater than 200 µM.

On to `COc1ccc2oc3c(C)cc4c(OC)nnc(OC)c4c3c2c1`, for which the EC50 is greater than 200 µM and the 50% inhibitory concentration (IC50) turned out to be 12.6 µM.

As for `O=S(=O)(CC#CCO)c1c2ccccc2cc2ccccc12`, the outcome was inactive. With `Cc1ccc(/C=N/NS(=O)(=O)c2ccccc2)c(C)c1`, the result was inactive.

Turning to `CCCCCCCCCCCc1c(O)c(=O)c2c(oc3c(=O)c(CCCCCCCCCCC)c(O)c(=O)c3n2-c2ccc(N(C)C)cc2)c1=O`, the EC50 is greater than 2.04 µM and the half-inhibitory concentration (IC50) was greater than 2.04 µM.

Take `Oc1cnc2c(O)cccc2c1`: the EC50 is greater than 200 µM and the IC50 is 17.8 µM. Turning to `CC1=NC2c3c(-c4ccc(Cl)cc4)cn(-c4ccc(C)cc4)c3N=CN2N1` (configuration not stated), the EC50 was greater than 100 µM and the IC50 is greater than 100 µM. For `Cc1noc(NS(=O)(=O)c2ccc(N=c3c4ccccc4n(C)c4ccccc34)cc2)c1C`, the outcome was inactive. For `Fc1cccc(F)c1C1SCc2nc3cc(Cl)ccc3n21` (configuration not stated), the EC50 was greater than 200 µM and the IC50 was 182 µM. As for `C=C1C[C@@H]2O[C@H]3[C@H]4[C@@H](C[C@@H](C)[C@@H](OC(C)=O)[C@H]42)[C@@H](C)CO[C@@]3(C)[C@H](OC(=O)CCCCCCC)C[C@H]1O`, the EC50 was greater than 200 µM and the 50% inhibitory concentration (IC50) came to 11 µM. For `c1ccc([P+](Cc2cccc(C[P+](c3ccccc3)(c3ccccc3)c3ccccc3)c2)(c2ccccc2)c2ccccc2)cc1` the same measures were greater than 200 µM and 85.1 µM. In the same order, the values of `COc1ccc(/C=N/NC(=O)CSc2nc(-c3ccccc3)c(-c3ccccc3)[nH]2)cc1OC` are greater than 55 µM and 31.6 µM. For `Cc1nc2c(cnn2C)cc1CCc1ccccc1`, the EC50 is greater than 200 µM and the IC50 came out at 33.9 µM. As for `COc1ccc(NC(=O)CC(=O)N2N=C(N(c3ccccc3)c3ccccc3)CC2c2ccccc2)cc1` (configuration not stated), the result was inactive. With `CCN(CC)c1ncnc2c1ncn2CCNC(CO)(CO)CO`, the EC50 was greater than 200 µM and the IC50 is greater than 200 µM. Consider `Cc1cc(NCCCCCCCCNc2cc(C)nc3cc(N)ccc23)c2ccc(N)cc2n1`, for which the EC50 was greater than 8.13 µM and the concentration for half-maximal inhibition (IC50) was found to be 4.68 µM. Consider `COc1cc(/C=C/c2ccnc3ccccc23)ccc1N(C)C`, for which the EC50 is greater than 200 µM and the IC50 worked out at 2.19 µM. Turning to `O=C(O)C1(P(=O)(O)O)CC1`, the result was inactive.

As to `O=C1OC2CCCC[C@@H]2C2C[C@]34CCCCC3[C@@H](C(=O)O4)C12` (some centres not stated), the EC50 was greater than 23.4 µM and the IC50 was greater than 23.4 µM.

Regarding `Cc1nn(C(=O)Cc2ccccc2)c2c1C(c1ccc(N(C)C)cc1)SC(N)=N2` (configuration not stated), the EC50 is 55 µM and the IC50 was greater than 200 µM. For `Cc1ccnc(NS(=O)(=O)c2ccc(N=Nc3cc4ccccc4c(C(=O)O)c3O)cc2)n1`, the EC50 is greater than 200 µM and the IC50 is 10 µM.

Consider `CCOC(=O)CCC(NC(=O)C(CCC(=O)OCC)NC(=O)C(Cc1ccc([N+](=O)[O-])cc1)NC(C)=O)C(=O)NNC(=O)OC(C)(C)C` (configuration not stated), for which the EC50 was greater than 200 µM and the IC50 was greater than 200 µM. Regarding `O=C(Nc1ccccc1)C(=O)C(C(=O)c1ccccc1)C(c1ccccc1)c1ccccc1` (configuration not stated), the EC50 is greater than 200 µM and the half-maximal inhibitory concentration (IC50) was 37.2 µM. `CN(C)/C=N/c1cc(=O)n(C)c(=O)n1C`: the outcome was inactive. Regarding `CC(C)CC1[C@@H](OCc2ccccc2)COS(=O)N1Cc1ccccc1` (some centres not stated), the EC50 was greater than 200 µM and the IC50 came to 26.3 µM. Regarding `Cc1ccccc1[P+](Cc1ccccc1)(c1ccccc1C)c1ccccc1C`, the EC50 is greater than 20 µM and the IC50 was 1.07 µM. As to `CCCCCCCCCCCCCCCC(=O)OCC1CCCN2CCCCC12` (configuration not stated), the EC50 was greater than 200 µM and the half-inhibitory concentration (IC50) was greater than 200 µM. Consider `C/C(CC(=O)Nc1cccc(Cl)c1C)=N\NC(N)=S`, for which the EC50 is greater than 120 µM and the IC50 was greater than 120 µM.

Take `c1ccc2cc3c(cc2c1)Cn1c-3nc2ccccc21`: the EC50 is greater than 200 µM and the IC50 was greater than 200 µM. Regarding `COc1ccccc1/C=C/C(=O)/C=C/c1ccccc1O`, the EC50 is greater than 79.4 µM and the IC50 came to 1.15 µM. On to `NC(=S)NNC(=S)NC(=O)c1ccco1`, for which the EC50 is greater than 200 µM and the IC50 is greater than 200 µM.

With `COc1ccc(C2C(Cl)C(=O)N2NC(=O)c2ccc(N)cc2)cc1OC` (configuration not stated), the EC50 is greater than 200 µM and the IC50 was 8.51 µM.

Take `C[C@H]1Oc2c3c(c4ccc(=O)oc4c2C(=O)[C@@H]1C)OC(C)(C)C=C3`: the EC50 is greater than 200 µM and the IC50 was greater than 200 µM.

As to `c1ccc(C2SCC3COCN32)cc1` (configuration not stated), the EC50 was greater than 240 µM and the IC50 was greater than 240 µM.

For the compound `CC(=O)c1ccc(N2C(=O)C3c4[nH]c5ccccc5c4C4CCC(C(C)(C)C)CC4C3C2=O)cc1` (configuration not stated), the EC50 was greater than 11.2 µM and the IC50 was greater than 11.2 µM.

Consider `O=C(Nc1ccc(Cl)c(Cl)c1)C(=O)C(C(=O)c1ccccc1-c1ccccc1)C1OC(=O)c2ccccc21` (configuration not stated), for which the EC50 is greater than 66.1 µM and the IC50 amounted to 29.5 µM. For the compound `COC(=O)C(C)[P+](c1ccccc1)(c1ccccc1)c1ccccc1` (configuration not stated), the EC50 was greater than 200 µM and the IC50 came out at 5.75 µM. As for `CC1OC(Oc2c(-c3ccc(O)c(O)c3)oc3cc(O)cc(O)c3c2=O)C(O)C(O)C1O` (configuration not stated), the outcome was inactive.

As a reminder, the EC50 is the midpoint of the concentration-response curve. What is called IC50 is the midpoint of a concentration-inhibition curve.
